# Data from article PMC11220827 (Frontiers in Pharmacology, 2024).
# Target: Estrogen ERα (h) (Homo sapiens, UniProt P03372)
# Test: biochemical
# Conditions: read-out: Estrogen ERα (h) (agonist RL): % inhibition @10 µM
compound,measurement,value
"O=c1c(-c2ccc(O)cc2)coc2cc(O)ccc12 [Daidzein, DAIDZEIN]",inhibition at 10 µM,100%
